Experimental data: a flash point compilation (Sun et al. 2020)

| Compound | flash point [°C] |
| --- | --- |
| COCCOCCO [2-(2-methoxyethoxy)ethanol] | 93.00 |
| COC(C)COC(C)COC(C)=O (configuration not stated) [2-(2-methoxypropoxy)propyl acetate] | 86.00 |
| C=C(C)C(=O)OCCOC(=O)C(=C)C [2-(2-methylprop-2-enoyloxy)ethyl 2-methylprop-2-enoate] | 101.00 |
| BrCC1CO1 (configuration not stated) [2-(bromomethyl)oxirane] | 56.00 |
| ClCC1CO1 (configuration not stated) [2-(chloromethyl)oxirane] | 34.00 |
| C=CC(=O)OCCN(C)C [2-(dimethylamino)ethyl prop-2-enoate] | 29.00 |
| FCC1CO1 (configuration not stated) [2-(fluoromethyl)oxirane] | 4.00 |
| C=CCOCC1CO1 (configuration not stated) [2-(prop-2-enoxymethyl)oxirane] | 57.00 |
| CCCCOC(=O)c1ccccc1C(=O)OCc1ccccc1 [2-O-benzyl 1-O-butyl benzene-1,2-dicarboxylate] | 199.00 |
| COCC(C)OCC(C)OC(C)CO (configuration not stated) [2-[1-(1-methoxypropan-2-yloxy)propan-2-yloxy]propan-1-ol] | 121.00 |
| CC(COc1ccc(Oc2ccccc2)cc1)Oc1ccccn1 (configuration not stated) [2-[1-(4-phenoxyphenoxy)propan-2-yloxy]pyridine] | 119.00 |
| CC(=O)OCCOCCOCCOC(C)=O [2-[2-(2-acetyloxyethoxy)ethoxy]ethyl acetate] | 174.00 |
| CCCCOCCOCCOCCO [2-[2-(2-butoxyethoxy)ethoxy]ethanol] | 143.00 |
| COC(C)COC(C)COC(C)CO (configuration not stated) [2-[2-(2-methoxypropoxy)propoxy]propan-1-ol] | 111.00 |
| COC(O)COCCOCCOCCO (configuration not stated) [2-[2-[2-(2-hydroxyethoxy)ethoxy]ethoxy]-1-methoxyethanol] | 161.00 |
| OCCN(CCO)CCO [2-[bis(2-hydroxyethyl)amino]ethanol] | 185.00 |
| CCOP(=O)(SC(C)CC)SC(C)CC (configuration not stated) [2-[butan-2-ylsulfanyl(ethoxy)phosphoryl]sulfanylbutane] | 129.00 |
| CCN(CCO)CCO [2-[ethyl(2-hydroxyethyl)amino]ethanol] | 98.00 |
| CC(=O)OCCOC(C)=O [2-acetyloxyethyl acetate] | 96.00 |
| CC(C)(N)CO [2-amino-2-methylpropan-1-ol] | 67.00 |
| Nc1cc(Cl)ccc1O [2-amino-4-chlorophenol] | 170.00 |
| CC(N)CO (configuration not stated) [2-aminopropan-1-ol] | 63.00 |
| O=C1OC(=O)c2ccccc21 [2-benzofuran-1,3-dione] | 152.00 |
| OCCBr [2-bromoethanol] | 41.00 |

| Compound | flash point [°C] |
| --- | --- |
| Oc1ccccc1Br [2-bromophenol] | 42.00 |
| CCC(C)c1ccccc1O (configuration not stated) [2-butan-2-ylphenol] | 112.00 |
| CCCCOCCO [2-butoxyethanol] | 61.00 |
| Nc1ccc([N+](=O)[O-])cc1Cl [2-chloro-4-nitroaniline] | 205.00 |
| Clc1cccc(C(Cl)(Cl)Cl)n1 [2-chloro-6-(trichloromethyl)pyridine] | 100.00 |
| CCc1cccc(CC)c1N(COC)C(=O)CCl [2-chloro-N-(2,6-diethylphenyl)-N-(methoxymethyl)acetamide] | 137.00 |
| O=CCCl [2-chloroacetaldehyde] | 88.00 |
| NC(=O)CCl [2-chloroacetamide] | 170.00 |
| N#CCCl [2-chloroacetonitrile] | 48.00 |
| O=C(Cl)CCl [2-chloroacetyl chloride] | 100.00 |
| O=Cc1ccccc1Cl [2-chlorobenzaldehyde] | 88.00 |
| C=CC(=C)Cl [2-chlorobuta-1,3-diene] | -20.00 |
| OCCCl [2-chloroethanol] | 60.00 |
| ClC=Cc1ccccc1 [2-chloroethenylbenzene] | 58.00 |
| Clc1ccc2ccccc2c1 [2-chloronaphthalene] | 125.00 |
| Oc1ccccc1Cl [2-chlorophenol] | 64.00 |
| CC(Cl)CO (configuration not stated) [2-chloropropan-1-ol] | 52.00 |
| C=Cc1ccccn1 [2-ethenylpyridine] | 42.00 |
| CCOCCOC(C)=O [2-ethoxyethyl acetate] | 57.00 |
| CCc1cccc(C)c1N [2-ethyl-6-methylaniline] | 102.00 |
| CCCCC(CC)CO (configuration not stated) [2-ethylhexan-1-ol] | 81.00 |
| CCCCC(C=O)CC (configuration not stated) [2-ethylhexanal] | 52.00 |
| CCCCC(CC)C(=O)O (configuration not stated) [2-ethylhexanoic acid] | 127.00 |
| CCCCC(CC)COC(=O)COc1ccc(Cl)cc1Cl (configuration not stated) [2-ethylhexyl 2-(2,4-dichlorophenoxy)acetate] | 171.00 |

| Compound | flash point [°C] |
| --- | --- |
| CCCCC(CC)COP(=O)(Oc1ccccc1)Oc1ccccc1 (configuration not stated) [2-ethylhexyl diphenyl phosphate] | 224.00 |
| C=CC(=O)OCC(CC)CCCC (configuration not stated) [2-ethylhexyl prop-2-enoate] | 82.00 |
| CC(C)(O)C#N [2-hydroxy-2-methylpropanenitrile] | 74.00 |
| CCCCCCCCCCCCCCCCCC(=O)OCCO [2-hydroxyethyl octadecanoate] | 260.00 |
| CC(O)C#N (configuration not stated) [2-hydroxypropanenitrile] | 77.00 |
| C/C=C/c1ccc(O)c(OC)c1 [2-methoxy-4-[(E)-prop-1-enyl]phenol] | 113.00 |
| COCCOC(C)=O [2-methoxyethyl acetate] | 44.00 |
| COC(C)COC(C)=O (configuration not stated) [2-methoxypropyl acetate] | 25.00 |
| CC(C)CNCC(C)C [2-methyl-N-(2-methylpropyl)propan-1-amine] | 29.00 |
| Cc1ccccc1N [2-methylaniline] | 85.00 |
| Cc1ccccc1C#N [2-methylbenzonitrile] | 84.00 |
| C=CC(C)(C)O [2-methylbut-3-en-2-ol] | 13.00 |
| C=CC(=C)C [2-methylbuta-1,3-diene] | -54.00 |
| CCC(C)CO (configuration not stated) [2-methylbutan-1-ol] | 50.00 |
| CC1CCCCC1=O (configuration not stated) [2-methylcyclohexan-1-one] | 48.00 |
| Cc1ccco1 [2-methylfuran] | -30.00 |
| CC1CO1 (configuration not stated) [2-methyloxirane] | -37.00 |
| CCCC(C)C=O (configuration not stated) [2-methylpentanal] | 20.00 |
| C=C(C)C=O [2-methylprop-2-enal] | 2.00 |
| C=C(C)C(=O)O [2-methylprop-2-enoic acid] | 77.00 |
| CC(C)(C)O [2-methylpropan-2-ol] | 11.00 |
| CC(C)C#N [2-methylpropanenitrile] | 8.00 |
| C=CC(=O)OCC(C)C [2-methylpropyl prop-2-enoate] | 30.00 |

Further lines, results first:

| flash point [°C] | Compound |
| --- | --- |
| 74.00 | COC(C)COC(C)CO (configuration not stated) [2-(2-methoxypropoxy)propan-1-ol] |
| 78.00 | C=CC(=O)OCCOCCOC(=O)C=C [2-(2-prop-2-enoyloxyethoxy)ethyl prop-2-enoate] |
| 96.00 | Cc1ccc(C(C)(C)O)cc1 [2-(4-methylphenyl)propan-2-ol] |
| 102.00 | CC(C)(C)c1ccc(OCC2CO2)cc1 (configuration not stated) [2-[(4-tert-butylphenoxy)methyl]oxirane] |
| 283.00 | Nc1ccc2c(c1)C(=O)c1ccccc1C2=O [2-aminoanthracene-9,10-dione] |
| 149.00 | CCCCCCCCCCCCc1ccccc1S(=O)(=O)O [2-dodecylbenzenesulfonic acid] |
| 37.00 | CCOC1CCC=CO1 (configuration not stated) [2-ethoxy-3,4-dihydro-2H-pyran] |
| 132.00 | CCCCC(CC)CNCC(CC)CCCC (configuration not stated) [2-ethyl-N-(2-ethylhexyl)hexan-1-amine] |
| 21.00 | CCC(C=O)CC [2-ethylbutanal] |
| 54.00 | CCC(CC)COC(C)=O [2-ethylbutyl acetate] |
| 60.00 | CCCCC(CC)CN (configuration not stated) [2-ethylhexan-1-amine] |
| 127.00 | CCCC(O)C(CC)CO (configuration not stated) [2-ethylhexane-1,3-diol] |
| -12.00 | CCC1CO1 (configuration not stated) [2-ethyloxirane] |
| 60.00 | Nc1ccccc1F [2-fluoroaniline] |
| 91.00 | CCCCCCOCCO [2-hexoxyethanol] |
| 102.00 | CC(=O)OCCO [2-hydroxyethyl acetate] |

| flash point [°C] | Compound |
| --- | --- |
| 188.00 | NC(=O)OCCO [2-hydroxyethyl carbamate] |
| 100.00 | O=C(O)CC(O)(CC(=O)O)C(=O)O [2-hydroxypropane-1,2,3-tricarboxylic acid] |
| 113.00 | CC(O)C(=O)O (configuration not stated) [2-hydroxypropanoic acid] |
| 74.00 | COc1ccccc1O [2-methoxyphenol] |
| 26.00 | CCC(C)(C)OC(C)=O [2-methylbutan-2-yl acetate] |
| -26.00 | C=C(C)CCC [2-methylpent-1-ene] |
| 54.00 | CCCC(C)CO (configuration not stated) [2-methylpentan-1-ol] |
| 93.00 | CC(O)CC(C)(C)O (configuration not stated) [2-methylpentane-2,4-diol] |
| -76.00 | C=C(C)C [2-methylprop-1-ene] |
| -9.00 | CC(C)CN [2-methylpropan-1-amine] |
| -83.00 | CC(C)C [2-methylpropane] |
| 59.00 | CC(C)C(=O)OC(=O)C(C)C [2-methylpropanoyl 2-methylpropanoate] |
| 37.00 | CC(C)COC(=O)C(C)C [2-methylpropyl 2-methylpropanoate] |
| 17.00 | CC(=O)OCC(C)C [2-methylpropyl acetate] |
| 36.00 | Cc1ccccn1 [2-methylpyridine] |
